We go through 30 compounds from patent publication US10590086B2, “Pharmaceutical compound” (IOmet Pharma Ltd., priority 2014, dated 2020).

The target in experiment [1] is T1, IDO (Homo sapiens, UniProt P14902). Kind of experiment: hIDO biochemical coupled assay. The following applies: 45 μM L-tryptophan, 17 minutes, room temperature; read-out: hIDO biochemical assay pIC50 (converted).
Experiment [2] addresses T2, TDO (Homo sapiens, UniProt P48775). In words: hTDO biochemical coupled assay. The following applies: 330 μM L-tryptophan, 17 minutes, room temperature; read-out: hTDO biochemical assay pIC50 (converted).
In experiment [3] the target is T2, TDO. Kind of experiment: A172 kynurenine cell-based assay. Further details: This assay utilised cancer cells which expressed either TDO or IDO; endogenous in cells; host or cells: A172 (human glioblastoma). The settings on record: A172 human glioblastoma cells, 48 hours, 500 μM L-tryptophan; read-out: A172 Kynurenine cell based assay pIC50 (converted). In a few lines: (§1)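 Cellular kynurenine production, TDO via A172 glioblastoma and IDO via IFN-γ-stimulated SKOV3 ovarian adenocarcinoma cells, was quantified after 48 hours' compound treatment in 500 μM L-tryptophan medium, using Erhlich's reagent and absorbance at 490 nm.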

The target in experiment [4] is T1, IDO. In words: SKOV3 kynurenine cell-based assay (IDO induced by IFN-γ). Further details: IDO expression was induced in the SKOV3 cells by the addition of 500 ng/ml IFN-γ; endogenous in cells; host or cells: SKOV3 (human ovarian adenocarcinoma), induced with IFN-γ. The settings on record: SKOV3 human ovarian adenocarcinoma cells, 500 ng/ml IFN-γ, 48 hours, 500 μM L-tryptophan; read-out: SKOV3 Kynurenine cell based assay pIC50 (converted). The method, boiled down:
as §1

T1 sequence (P14902 whole entry): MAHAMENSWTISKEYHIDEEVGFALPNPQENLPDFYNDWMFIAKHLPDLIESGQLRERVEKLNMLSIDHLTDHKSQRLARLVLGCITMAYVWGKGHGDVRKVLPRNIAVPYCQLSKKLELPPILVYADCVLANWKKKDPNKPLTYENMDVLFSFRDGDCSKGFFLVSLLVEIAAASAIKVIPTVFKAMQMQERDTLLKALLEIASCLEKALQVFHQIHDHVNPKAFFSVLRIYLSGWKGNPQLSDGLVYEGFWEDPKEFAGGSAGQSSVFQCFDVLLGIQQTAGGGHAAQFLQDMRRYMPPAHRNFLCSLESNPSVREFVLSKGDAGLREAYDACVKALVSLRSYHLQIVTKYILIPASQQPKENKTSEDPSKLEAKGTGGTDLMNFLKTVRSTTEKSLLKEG
T2 sequence (P48775 whole entry): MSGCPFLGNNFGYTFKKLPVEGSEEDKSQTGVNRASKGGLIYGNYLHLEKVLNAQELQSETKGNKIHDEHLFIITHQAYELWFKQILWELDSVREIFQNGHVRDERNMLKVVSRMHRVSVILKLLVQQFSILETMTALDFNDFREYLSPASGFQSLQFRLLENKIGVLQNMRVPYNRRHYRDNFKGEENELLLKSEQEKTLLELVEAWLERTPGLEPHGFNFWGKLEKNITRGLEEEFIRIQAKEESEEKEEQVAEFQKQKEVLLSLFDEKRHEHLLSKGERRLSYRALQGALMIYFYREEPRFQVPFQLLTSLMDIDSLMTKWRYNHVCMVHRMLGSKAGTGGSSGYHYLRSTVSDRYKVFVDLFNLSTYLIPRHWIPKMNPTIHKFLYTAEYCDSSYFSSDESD

For `CC(=O)N1C2CCC1CN(c1cc(Cl)cc3[nH]ncc13)C2` [Compound 231], the IC50 on IDO [1] is 3.24 to 31.6 µM; on TDO [2] it was less than 3.16 µM; on TDO [3], less than 3.16 µM; at IDO [4] it was 3.24 to 31.6 µM.
With `CS(=O)(=O)N1CCOC2(CCN(c3cc(Cl)cc4[nH]ncc34)CC2)C1` [Compound 398], the IC50 on IDO [1] is more than 100 µM; on TDO [2], less than 3.16 µM; on TDO [3], less than 3.16 µM; at IDO [4], more than 100 µM.
`Clc1cc(-c2cnn(-c3ccccc3)c2)c2cn[nH]c2c1` [Compound 399]: the IC50 at IDO [1] was more than 100 µM; on TDO [2] it was more than 100 µM; on TDO [3], less than 3.16 µM; at IDO [4] it was more than 100 µM.
Take `CN(C)C(=O)c1ccc(-c2cc(Cl)cc3[nH]ncc23)cc1` [Compound 255]: the IC50 at IDO [1] was more than 100 µM; at TDO [2] it was 3.24 to 31.6 µM; on TDO [3] it was less than 3.16 µM; on IDO [4], 3.24 to 31.6 µM.
For `CS(=O)(=O)NC1CCN(c2cc(Cl)cc3[nH]ncc23)CC1` [Compound 97], the IC50 was 3.24 to 31.6 µM at IDO [1], less than 3.16 µM on TDO [2], less than 3.16 µM at TDO [3] and 32.4 to 100 µM at IDO [4].
As to `OC(CC1CCOCC1)c1cc(Cl)cc2[nH]ncc12` (stereo not drawn) [Compound 289], the IC50 at IDO [1] is 32.4 to 100 µM; on TDO [2], less than 3.16 µM; on TDO [3], less than 3.16 µM; on IDO [4] it was 32.4 to 100 µM.
As for `OC1(c2cc(Cl)cc3[nH]ncc23)CCC(F)(F)CC1` [Compound 428], the IC50 was 3.24 to 31.6 µM on IDO [1], less than 3.16 µM at TDO [2], less than 3.16 µM on TDO [3] and 3.24 to 31.6 µM on IDO [4].
For the compound `CS(=O)(=O)NCCN1CCN(c2cc(Cl)cc3[nH]ncc23)CC1` [Compound 403], the IC50 on IDO [1] is more than 100 µM; at TDO [2], less than 3.16 µM; at TDO [3], less than 3.16 µM; on IDO [4], more than 100 µM.
For the compound `CC(=O)N1CCN(c2cc(Cl)cc3c(N)noc23)CC1(C)C` [Compound 305], the IC50 on IDO [1] is more than 100 µM; at TDO [2] it was 32.4 to 100 µM; at TDO [3], 3.24 to 31.6 µM; at IDO [4] it was 32.4 to 100 µM.
As to `Cc1nc2c([nH]1)CN(c1cc(Cl)cc3[nH]ncc13)CC2` [Compound 211], the IC50 is 32.4 to 100 µM on IDO [1], less than 3.16 µM on TDO [2], 3.24 to 31.6 µM on TDO [3] and 32.4 to 100 µM at IDO [4].
For `Cc1nc2c([nH]1)CN(c1cc(C(F)(F)F)cc3[nH]ncc13)CC2` [Compound 212], the IC50 was more than 100 µM at IDO [1], less than 3.16 µM at TDO [2], less than 3.16 µM at TDO [3] and 32.4 to 100 µM on IDO [4].
In the case of `O=C1NC(=O)C(C2CCN(c3cc(Cl)cc4[nH]ncc34)CC2)N1` (stereo not drawn) [Compound 443], the IC50 on IDO [1] is more than 100 µM; at TDO [2], less than 3.16 µM; at TDO [3], less than 3.16 µM; on IDO [4], more than 100 µM.
For the compound `CN1C(=O)[C@@H]2CC[C@H]1CN(c1cc(Cl)cc3[nH]ncc13)C2` [Compound 435], the IC50 on IDO [1] is 3.24 to 31.6 µM; on TDO [2], less than 3.16 µM; at TDO [3] it was less than 3.16 µM; on IDO [4], more than 100 µM.
On to `CC(=O)N(C)C1CCN(c2cc(Cl)cc3[nH]ncc23)CC1(C)C` (stereo not drawn) [Compound 450], for which the IC50 on IDO [1], at TDO [2], on TDO [3] and on IDO [4] was less than 3.16 µM each time.
Turning to `CS(=O)(=O)N1CCC2(CCN(c3cc(Cl)cc4[nH]ncc34)CC2)CC1` [Compound 355], the IC50 was 32.4 to 100 µM on IDO [1], less than 3.16 µM on TDO [2], less than 3.16 µM on TDO [3] and 3.24 to 31.6 µM at IDO [4].
For the compound `CN(c1cc(C2CCN(S(C)(=O)=O)CC2)c2cn[nH]c2c1)S(C)(=O)=O` [Compound 338], the IC50 on IDO [1] is more than 100 µM; on TDO [2], more than 100 µM; at TDO [3], 3.24 to 31.6 µM; at IDO [4], more than 100 µM.
Regarding `CNC(=O)C1(C)CCN(c2cc(Cl)cc3[nH]ncc23)CC1` [Compound 382], the IC50 is more than 100 µM at IDO [1], less than 3.16 µM at TDO [2], less than 3.16 µM on TDO [3] and 3.24 to 31.6 µM at IDO [4].
`Cc1cc(S(C)(=O)=O)ccc1-c1cc(Cl)cc2[nH]ncc12` [Compound 268]: the IC50 is 32.4 to 100 µM on IDO [1], less than 3.16 µM on TDO [2], less than 3.16 µM at TDO [3] and 3.24 to 31.6 µM at IDO [4].
On to `CC(=O)N1CCN(c2cc(Cl)cc3c(N)noc23)CC1` [Compound 303], for which the IC50 on IDO [1] is more than 100 µM; on TDO [2], more than 100 µM; on TDO [3], 3.24 to 31.6 µM; on IDO [4], more than 100 µM.
For `CC(=O)NCC1(C)CN(c2cc(Cl)cc3[nH]ncc23)C1` [Compound 446], the IC50 on IDO [1] is more than 100 µM; at TDO [2], less than 3.16 µM; at TDO [3], less than 3.16 µM; on IDO [4], less than 3.16 µM.
For the compound `CS(=O)(=O)N1CCN(c2cc(C(F)(F)F)cc3[nH]ncc23)C2CCCCC21` (single isomer, unassigned) [Compound 415], the IC50 on IDO [1] was more than 100 µM; on TDO [2], 3.24 to 31.6 µM; at TDO [3] it was 3.24 to 31.6 µM; at IDO [4], more than 100 µM.
With `CN(C)CCN1C(=O)NC2(CCN(c3cc(Cl)cc4[nH]ncc34)CC2)C1=O` [Compound 392], the IC50 at IDO [1], at TDO [2], at TDO [3] and at IDO [4] was less than 3.16 µM throughout.
Regarding `CS(=O)(=O)N1C2CCC1CN(c1cc(Cl)cc3[nH]ncc13)C2` [Compound 232], the IC50 was 3.24 to 31.6 µM at IDO [1], less than 3.16 µM on TDO [2], less than 3.16 µM at TDO [3] and 3.24 to 31.6 µM at IDO [4].
Regarding `Cc1cc(C2CCN(S(C)(=O)=O)CC2)c2cn[nH]c2c1` [Compound 30], the IC50 is less than 3.16 µM on IDO [1], less than 3.16 µM on TDO [2], less than 3.16 µM on TDO [3] and 3.24 to 31.6 µM on IDO [4].
With `CNC(=O)c1ccc(C2CCN(c3cc(Cl)cc4[nH]ncc34)CC2)cc1` [Compound 440], the IC50 on IDO [1] was 3.24 to 31.6 µM; on TDO [2], less than 3.16 µM; at TDO [3], less than 3.16 µM; at IDO [4], 3.24 to 31.6 µM.
For `CC(=O)NC1CCN(c2cc(Cl)cc3[nH]ncc23)CC1(C)C` (stereo not drawn) [Compound 335], the IC50 on IDO [1] is 3.24 to 31.6 µM; at TDO [2], less than 3.16 µM; at TDO [3], less than 3.16 µM; at IDO [4] it was 3.24 to 31.6 µM.
With `Clc1cc(N2CCC(c3cscn3)CC2)c2cn[nH]c2c1` [Compound 442], the IC50 was 3.24 to 31.6 µM at IDO [1], less than 3.16 µM on TDO [2], less than 3.16 µM on TDO [3] and more than 100 µM at IDO [4].
As to `CC(=O)NC1CCN(c2cc(Cl)cc3[nH]ncc23)CC1` [Compound 250], the IC50 at IDO [1] is 32.4 to 100 µM; at TDO [2], less than 3.16 µM; at TDO [3], less than 3.16 µM; at IDO [4] it was 3.24 to 31.6 µM.
In the case of `O=S(=O)(c1ccccc1)N1CCN(c2cccc3[nH]ncc23)CC1` [Compound 15], the IC50 on IDO [1] was more than 100 µM; at TDO [2], 32.4 to 100 µM; on TDO [3], 3.24 to 31.6 µM; on IDO [4], 32.4 to 100 µM.
Turning to `O=C1N(c2ccccc2)CNC12CCN(c1cc(Cl)cc3[nH]ncc13)CC2` [Compound 422], the IC50 on IDO [1] was 3.24 to 31.6 µM; on TDO [2], less than 3.16 µM; at TDO [3] it was less than 3.16 µM; at IDO [4], less than 3.16 µM.
